Results as given in publication PMC6017257, “Towards a Novel Class of Multitarget-Directed Ligands: Dual P2X7–NMDA Receptor Antagonists” (Molecules : A Journal of Synthetic Chemistry and Natural …, 2018).
Like-named read-outs stand apart in the source and are kept apart here.

Key:
human P2X7 receptor = target: T1, human P2X7 receptor (Homo sapiens, UniProt Q99572); assay: BzATP-induced ethidium bromide uptake (dye uptake) in hP2X7-expressing HEK293 cells; type: cell-based; settings: for IC50: ethidium bromide accumulation stimulated by BzATP 6 µM, hP2X7-expressing HEK293 cells, from concentration-response curves; for inhibition at 1 µM / inhibition at 10 µM: P2X7, relative to maximum ethidium bromide uptake stimulated by BzATP 6 µM; for inhibition at 1 µM: at 1 μM (right value); for inhibition at 10 µM: at 10 µM (left value)
T1 construct: expressed in transfected cells; host or cells: HEK293
T1 sequence (Q99572 1-595): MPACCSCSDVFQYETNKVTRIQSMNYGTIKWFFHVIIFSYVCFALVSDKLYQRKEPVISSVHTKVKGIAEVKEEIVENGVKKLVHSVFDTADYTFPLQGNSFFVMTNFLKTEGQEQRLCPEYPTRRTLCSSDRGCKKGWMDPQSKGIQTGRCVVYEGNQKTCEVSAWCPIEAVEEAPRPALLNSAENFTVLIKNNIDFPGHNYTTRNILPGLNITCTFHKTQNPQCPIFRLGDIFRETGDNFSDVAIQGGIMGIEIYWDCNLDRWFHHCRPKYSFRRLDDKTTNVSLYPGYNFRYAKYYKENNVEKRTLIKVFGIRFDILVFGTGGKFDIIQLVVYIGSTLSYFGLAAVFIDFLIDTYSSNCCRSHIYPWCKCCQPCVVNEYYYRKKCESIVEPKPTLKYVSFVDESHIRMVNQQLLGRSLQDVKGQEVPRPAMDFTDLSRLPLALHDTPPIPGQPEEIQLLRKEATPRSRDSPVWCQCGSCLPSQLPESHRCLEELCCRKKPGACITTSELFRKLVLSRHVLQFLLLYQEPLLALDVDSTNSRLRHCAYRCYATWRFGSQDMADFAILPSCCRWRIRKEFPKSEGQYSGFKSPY
Protocol: All new compounds were evaluated for their antagonistic effects on 2’(3’)-O-(4-benzoylbenzoyl)-ATP (BzATP)-induced ethidium bromide uptake in human embryonic kidney 293 (HEK 293) cells, stably expressing the human P2X7 receptor, using P2X7 receptor antagonist AZD9056—AstraZeneca’s clinical drug candidate [46]—as a positive control. […] However, taking into account that we wanted to design a compound endowed with low micromolar inhibitory potencies against both the P2X7 and NMDA receptors, compound 9g suited our purpose.
HEK293 cells stably expressing the P2X7 receptor were maintained in Dulbecco's modified Eagle's medium (DMEM) supplemented with 10% fetal bovine serum (FBS), 2 mM L-glutamine, and antibiotics (50 U/mL penicillin and […] streptomycin) in a humidified 5% CO2 atmosphere at 37 °C. We used Lipofectamine as a transfection reagent with a pcDNA3.1 vector-based plasmid harbouring hP2X7R (Invitrogen, Waltham, MA, USA). After diluting to 2.5 × 10^6 cells/mL, a buffer composed of 10 mM HEPES, 5 mM N-methyl-D-glutamine, 5.6 mM KCl, 10 mM D-glucose, and 0.5 mM CaCl2 (pH 7.4), supplemented with either 280 mM sucrose or 140 mM NaCl and an 80 μL aliquot, was added to each well of 96-well culture plates. The test compounds and 2(3’)-O-(4-benzoylbenzoyl)-ATP (BzATP) were then added, and the cells were incubated for 2 h in a humidified 5% CO2 atmosphere at 37 °C. After incubation, a Bio-Tek FL600 fluorescence plate reader (Winooski, VT, USA) was used to measure the […] at an excitation wavelength of 530 nm and an emission wavelength of 590 nm. The inhibition (percent) of ethidium ion uptake was expressed as a relative value of the maximum accumulation when stimulated with BzATP only. To calculate IC50 values, we calculated a series of dose–response data using nonlinear regression analysis (i.e., percentage accumulation of ethidium bromide vs compound concentration). The concentration of ethidium bromide was 0.1 mM.

hP2X7 [1] = system: hP2X7; set-up: method as in PMID 18438986; settings: read-out: P2X7R antagonist activity IC50; cited from earlier work
NMDA receptors = assay: Inhibition of NMDA-evoked increase in intracellular calcium in rat cultured cerebellar granule neurons; type: cell-based; settings: for % inhibition: relative to maximum intracellular calcium stimulated by 100 µM NMDA with 10 µM glycine
Protocol: Additionally, to evaluate whether the synthesized compounds were able to antagonize the NMDA receptors, we measured their effects on the increase in intracellular calcium evoked by NMDA (100 μM, in the presence of 10 μM of glycine) on rat-cultured cerebellar granule neurons.
The functional assay of antagonist activity at the NMDA receptors was performed using primary cultures of rat cerebellar granule neurons that were prepared according to established protocols. Cells were grown on 10 mm poly-L-lysine coated glass cover slips, and used for the experiments after 6–9 days in vitro. Cells were loaded with 6 µM Fura-2 AM (ThermoFisher Scientific-Molecular Probes) for 30 min. Afterwards, the coverslip was mounted on a quartz cuvette containing a Locke-Hepes buffer using a special holder. Measurements were performed using a PerkinElmer LS-55 fluorescence spectrometer (Waltham, MA, USA) equipped with a fast-filter accessory, under mild agitation and at 37 °C. Analysis of each sample was recorded in real time for 1600 s. After stimulation with NMDA (100 µM, in the presence of 10 µM glycine), increasing cumulative concentrations of the compound to be tested were added. The percentages of inhibition at every tested concentration were analyzed using a non-linear regression curve fitting analysis by using the software GraphPad Prism 5.0 (GraphPad Software Inc., La Jolla, CA, USA).
Table S1. NMDA antagonist activity in rat cerebellar granule cells. […]
aPercentage inhibition values at 100 µM (left) and 300 μM (right) were expressed as percentages, relative to maximum intracellular calcium concentration stimulated by 100 µM NMDA in the presence of 10 µM of glycine. All experiments were repeated at least three times. bIC50 value was obtained from concentration response curves.

hP2X7 [2] = system: hP2X7; set-up: method as in PMID 22400713; settings: read-out: P2X7R antagonist IC50; cited from earlier work
NMDAR = settings: cited from earlier work

SMILES | % inhibition (NMDA receptors; at 100 µM (left value)) [%] | % inhibition (NMDA receptors; at 300 μM (right value)) [%] | melting point [°C] | inhibition at 1 µM (human P2X7 receptor) [%] | inhibition at 10 µM (human P2X7 receptor) [%] | further results
O=C(NCC12CC3CC(CC(C3)C1)C2)c1cc(CCCNCCCO)ccc1Cl [AZD9056, reference compound] | – | – | – | – | – | IC50 (human P2X7 receptor): 0.0041 ± 0.0007 µM
O=C(NNc1ccccc1Cl)C12CC3CC(CC(C3)C1)C2 [Compound 1a] | – | – | – | – | – | IC50 (hP2X7 [1]): 0.0116 ± 0.002 µM
O=C(NNc1ccccc1Cl)C12CC3CC(CC(O)(C3)C1)C2 [Compound 1b] | – | – | – | – | – | IC50 (hP2X7 [1]): 0.275 ± 0.05 µM
NC12CC3CC(C1)CC(C(=O)NCc1ccccc1Cl)(C3)C2 [Compound 2, 3-Amino-N-(2-chlorobenzyl)adamantane-1-carboxamide] | 18 | 30 | 186 to 189 | – | – | –
CC12CC3CC(C)(C1)CC(C(=O)NNc1c(Cl)cncc1Cl)(C3)C2 [Compound 3] | – | – | – | – | – | IC50 (hP2X7 [2]): 0.013 ± 0.001 µM
NC12CC3CC(C1)CC(C(=O)NNc1ccccc1C(F)(F)F)(C3)C2 [Compound 9a, 3-Amino-N'-[2-(trifluoromethyl)phenyl]adamantane-1-carbohydrazide] | 5 | 14 | 213 to 216 | 37 | 48 | –
NC12CC3CC(C1)CC(C(=O)NNc1c(Cl)cccc1Cl)(C3)C2 [Compound 9b, 3-Amino-N'-(2,6-dichlorophenyl)adamantane-1-carbohydrazide] | 17 | 38 | 153 to 156 | 16 | 23 | –
NC12CC3CC(C1)CC(C(=O)NNc1cccc(Cl)c1Cl)(C3)C2 [Compound 9c, 3-Amino-N'-(2,3-dichlorophenyl)adamantane-1-carbohydrazide] | 23 | 30 | 215 to 219 | 17 | 42 | –
NC12CC3CC(C1)CC(C(=O)NNc1ccc(C(F)(F)F)cc1Cl)(C3)C2 [Compound 9d, 3-Amino-N'-[2-chloro-4-(trifluoromethyl)phenyl]adamantane-1-carbohydrazide] | 20 | – | 185 to 186 | 21 | 24 | –
NC12CC3CC(C1)CC(C(=O)NNc1c(Cl)cncc1Cl)(C3)C2 [Compound 9e, 3-Amino-N'-(3,5-dichloropyridin-4-yl)adamantane-1-carbohydrazide] | 6 | 16 | 191 to 192 | 27 | 53 | –
NC12CC3CC(C1)CC(C(=O)NNc1cccc(Cl)c1F)(C3)C2 [Compound 9f, 3-Amino-N'-(3-chloro-2-fluorophenyl)adamantane-1-carbohydrazide] | 11 | 18 | 200 to 202 | 17 | 15 | –
NC12CC3CC(C1)CC(C(=O)NNc1ccccc1Cl)(C3)C2 [Compound 9g, 3-Amino-N'-(2-chlorophenyl)adamantane-1-carbohydrazide] | – | – | 220 to 222 | – | – | IC50 (NMDA receptors; NMDA 100 μM with 10 μM glycine, rat cerebellar granule neurons, read-out: IC50 (NMDA receptor)): 468 ± 23 µM; NMDA receptor inhibition (in words) (NMDA receptors; rat cerebellar granule neurons): some activity as an NMDA receptor antagonist; IC50 (human P2X7 receptor): 6 ± 0.6 µM
CC12CC3(C)CC(N)(C1)CC(C(=O)NNc1c(Cl)cncc1Cl)(C2)C3 [Compound 15a, 3-Amino-N'-(3,5-dichloropyridin-4-yl)-5,7-dimethyladamantane-1-carbohydrazide] | 20 | 31 | 300 to 302 | – | – | NMDA receptor inhibition (in words) (NMDA receptors; rat cerebellar granule neurons): unable to significantly inhibit the NMDA receptor even at millimolar concentrations; IC50 (human P2X7 receptor): 9.9 ± 0.7 µM
CC12CC3(C)CC(N)(C1)CC(C(=O)NNc1ccccc1Cl)(C2)C3 [Compound 15b, 3-Amino-N'-(2-chlorophenyl)-5,7-dimethyladamantane-1-carbohydrazide] | 7 | 8 | 280 to 282 | – | – | NMDA receptor inhibition (in words) (NMDA receptors; rat cerebellar granule neurons): unable to significantly inhibit the NMDA receptor even at millimolar concentrations; IC50 (human P2X7 receptor): 16.1 ± 1.6 µM
NC12CC3CC(CC(C3)C1)C2 [amantadine] | – | – | – | – | – | IC50 (NMDAR; amantadine, read-out: NMDAR antagonist IC50): 92 ± 29 µM
CC12CC3CC(C)(C1)CC(N)(C3)C2 [memantine] | – | – | – | – | – | fold more potent as an NMDA inhibitor than amantadine (NMDAR): 60 fold
